Data as given in ChEMBL document CHEMBL5154870, “Discovery of novel glutaminase 1 allosteric inhibitor with 4-piperidinamine linker and aromatic heterocycles” (Eur J Med Chem, 2022).
Active and inactive are the calls of the source. No cut-off for these calls is given here.

Tests used:
[1] = Metabolic stability in human liver microsomes assessed as intrinsic clearance at 10 uM by LC-MS/MS analysis; format: ADME, Microsome; conditions: read-out: CLH
H22 = experiment: Antiproliferative activity against mouse H22 cells assessed as inhibition of cell proliferation measured after 72 hrs by MTT assay; format: functional, cell-based; conditions: H22, 72 h
HCT-116 [2] = experiment: Induction of apoptosis in human HCT-116 cells assessed as necrotic cells at 30 nM measured after 24 hrs by Annexin V-FITC/PI staining based flow cytometry method (reference value: 0.48 %); format: functional
HCT-116 [3] = experiment: Induction of apoptosis in human HCT-116 cells assessed as necrotic cells at 50 nM measured after 24 hrs by Annexin V-FITC/PI staining based flow cytometry method (reference value: 0.48 %); format: functional
HCT-116 [4] = experiment: Induction of apoptosis in human HCT-116 cells assessed as early apoptotic cells at 200 nM measured after 24 hrs by Annexin V-FITC/PI staining based flow cytometry method (reference value: 4.65 %); format: functional
HCT-116 [5] = experiment: Induction of apoptosis in human HCT-116 cells assessed as necrotic cells at 200 nM measured after 24 hrs by Annexin V-FITC/PI staining based flow cytometry method (reference value: 0.48 %); format: functional
[6] = AUC (0 to infinity) in Sprague-Dawley rat at 10 mg/kg, ip measured for 72 hrs by LC-MS/MS analysis; format: ADME, organism-based; design: dose 10 mg/kg, time 72 hrs, route ip; conditions: in vivo
[7] = Half life in Sprague-Dawley rat at 10 mg/kg, ip measured for 72 hrs by LC-MS/MS analysis; format: ADME, organism-based; conditions: in vivo
[8] = MRT (0 to infinity) in Sprague-Dawley rat at 5 mg/kg, iv measured for 72 hrs by LC-MS/MS analysis; format: ADME, organism-based; conditions: in vivo
[9] = MRT (0 to infinity) in Sprague-Dawley rat at 10 mg/kg, ip measured for 72 hrs by LC-MS/MS analysis; format: ADME, organism-based; conditions: in vivo
[10] = Apparent volume of distribution in Sprague-Dawley rat at 5 mg/kg, iv measured for 72 hrs by LC-MS/MS analysis; format: ADME, organism-based; conditions: in vivo
[11] = Apparent volume of distribution in Sprague-Dawley rat at 10 mg/kg, ip measured for 72 hrs by LC-MS/MS analysis; format: ADME, organism-based; conditions: in vivo
[12] = Apparent clearance in Sprague-Dawley rat at 10 mg/kg, ip measured for 72 hrs by LC-MS/MS analysis; format: ADME, organism-based; conditions: in vivo
[13] = Toxicity in nude mouse xenografted with human HCT-116 cells assessed as spleen damage by measuring edema and atrophy at 50 to 100 mg/kg, ip measured after 21 days by H and E staining based analysis; format: organism-based; conditions: in vivo, 504 h, dose 50-100 mg/kg, time 21 day
[14] = Toxicity in nude mouse xenografted with human HCT-116 cells assessed as kidney damage by measuring edema and atrophy at 50 to 100 mg/kg, ip measured after 21 days by H and E staining based analysis; format: organism-based; conditions: in vivo, 504 h, dose 50-100 mg/kg, time 21 day
[15] = biological target: T1, Glutaminase kidney isoform, mitochondrial (Homo sapiens) (UniProt O94925); conditions: filed as negative allosteric modulator
T1 sequence (whole entry): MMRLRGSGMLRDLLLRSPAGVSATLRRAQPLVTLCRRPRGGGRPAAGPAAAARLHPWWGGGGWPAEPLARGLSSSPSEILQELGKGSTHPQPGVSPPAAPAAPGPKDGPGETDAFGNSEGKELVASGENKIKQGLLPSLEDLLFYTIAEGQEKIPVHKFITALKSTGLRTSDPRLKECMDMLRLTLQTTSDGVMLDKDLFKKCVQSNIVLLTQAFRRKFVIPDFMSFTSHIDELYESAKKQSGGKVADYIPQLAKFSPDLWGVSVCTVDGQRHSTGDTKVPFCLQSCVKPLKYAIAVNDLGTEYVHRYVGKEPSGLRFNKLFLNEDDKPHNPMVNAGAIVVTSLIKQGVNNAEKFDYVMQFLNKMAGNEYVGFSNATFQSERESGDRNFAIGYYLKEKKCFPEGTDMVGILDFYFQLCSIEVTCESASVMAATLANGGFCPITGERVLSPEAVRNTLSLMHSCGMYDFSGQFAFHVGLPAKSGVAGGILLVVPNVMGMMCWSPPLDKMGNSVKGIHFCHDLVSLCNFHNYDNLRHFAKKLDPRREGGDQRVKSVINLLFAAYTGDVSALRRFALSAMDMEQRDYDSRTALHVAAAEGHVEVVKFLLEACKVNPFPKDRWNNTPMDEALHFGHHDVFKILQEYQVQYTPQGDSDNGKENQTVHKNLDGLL
Description: Binding affinity to human GLS1 assessed as stabilization of protein by measuring change in melting temperature by protein thermal shift assay

[16] = biological target: T1, Glutaminase kidney isoform, mitochondrial (Homo sapiens); conditions: HCT-116, filed as negative allosteric modulator, dose 100-300 nM, time 12.0 hrs
[17] = biological target: T1, Glutaminase kidney isoform, mitochondrial (Homo sapiens); conditions: HCT-116, filed as negative allosteric modulator, dose 100-300 nM, time 12.0 hrs; remark: listed apart in the source

- microsomal CLint at 10 µM [1]: 8.95 µL/min/mg
- AUC(0-inf) [6]: 3.49 µg·h/mL
- half-life [7]: 8.92 h
- MRT inf [8]: 4.97 h
- MRT inf [9]: 13 h
- Vd/F [10]: 7.31 L/kg
- Vd/F [11]: 36.1 L/kg
- CL/F [12]: 2.93 L/h/kg
- ΔTm [15]: 14.9 °C
- inhibition [16]: Active
- inhibition [17]: Active
SMILES: O=C(Cc1ccccc1)Nc1nnc(NC2CCN(c3nnc(NC(=O)c4nccn4Cc4ccc(C(F)(F)F)cc4)s3)CC2)s1
- IC50 (H22): 10.8 µM
- Activity (HCT-116 [2]): 0.048%
- Activity (HCT-116 [3]): 0.01%
- Activity (HCT-116 [4]): 82.49%
- Activity (HCT-116 [5]): 0.02%
- Activity [13]: Non-Toxic
- Activity [14]: Non-Toxic
